Consider two molecules from US6448405B1, “Steroid receptor modulator compounds and methods” (Ligand Pharmaceuticals Incorporated, priority 1994, dated 2002).

Test [1] has as its target T1, human glucocorticoid receptor (GR) (Homo sapiens, UniProt P04150).
T1 construct: expressed in transfected cells; host or cells: CV-1 cells, transient transfection
T1 sequence (P04150 1-777): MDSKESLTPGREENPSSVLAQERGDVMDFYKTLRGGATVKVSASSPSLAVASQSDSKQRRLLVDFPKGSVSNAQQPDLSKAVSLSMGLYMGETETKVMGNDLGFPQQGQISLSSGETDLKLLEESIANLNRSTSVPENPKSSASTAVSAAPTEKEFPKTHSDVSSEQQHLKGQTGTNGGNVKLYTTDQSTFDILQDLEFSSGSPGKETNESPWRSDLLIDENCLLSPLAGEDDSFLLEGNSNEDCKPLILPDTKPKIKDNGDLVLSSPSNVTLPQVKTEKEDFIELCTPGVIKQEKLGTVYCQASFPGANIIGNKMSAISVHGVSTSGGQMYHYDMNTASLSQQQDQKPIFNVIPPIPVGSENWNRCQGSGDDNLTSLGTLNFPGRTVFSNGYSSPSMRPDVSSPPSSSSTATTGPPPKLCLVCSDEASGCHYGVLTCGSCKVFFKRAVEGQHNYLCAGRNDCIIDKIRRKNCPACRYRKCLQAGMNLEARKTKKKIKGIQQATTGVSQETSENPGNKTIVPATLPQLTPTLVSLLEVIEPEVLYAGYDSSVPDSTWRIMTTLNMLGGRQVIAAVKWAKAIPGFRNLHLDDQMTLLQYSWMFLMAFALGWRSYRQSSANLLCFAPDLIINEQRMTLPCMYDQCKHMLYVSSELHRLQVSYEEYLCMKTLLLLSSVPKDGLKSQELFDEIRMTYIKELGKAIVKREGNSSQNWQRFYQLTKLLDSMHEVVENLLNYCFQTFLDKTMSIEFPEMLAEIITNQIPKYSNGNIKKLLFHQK
Description: Co-transfection assay, GR antagonist activity, CV-1 cells (pRShGR). The following applies: antagonist mode; for GR Antagonist CV-1 Cells Efficacy (%): Table 4, % maximal inhibition; for IC50: dexamethasone at its EC50, read-out: GR Antagonist CV-1 Cells Potency. The test is classed as cell-based.

In test [2] the target is T2, human glucocorticoid receptor alpha (GRα) (Homo sapiens, UniProt P04150).
T2 construct: made in house; crude extract used
T2 sequence (P04150 1-777): T1 sequence (P04150 1-777)
Briefly: GR binding assay, baculovirus extract, [3H] dexamethasone. The following applies: competition with [3H] dexamethasone, 4° C., 16 hours; read-out: GR Binding K1.

A further test concerns the target T3, human PR-B (Homo sapiens, UniProt P06401).
T3 construct: expressed in transfected cells; host or cells: CV-1 cells (African green monkey kidney fibroblasts), transient transfection
T3 sequence (P06401 1-933): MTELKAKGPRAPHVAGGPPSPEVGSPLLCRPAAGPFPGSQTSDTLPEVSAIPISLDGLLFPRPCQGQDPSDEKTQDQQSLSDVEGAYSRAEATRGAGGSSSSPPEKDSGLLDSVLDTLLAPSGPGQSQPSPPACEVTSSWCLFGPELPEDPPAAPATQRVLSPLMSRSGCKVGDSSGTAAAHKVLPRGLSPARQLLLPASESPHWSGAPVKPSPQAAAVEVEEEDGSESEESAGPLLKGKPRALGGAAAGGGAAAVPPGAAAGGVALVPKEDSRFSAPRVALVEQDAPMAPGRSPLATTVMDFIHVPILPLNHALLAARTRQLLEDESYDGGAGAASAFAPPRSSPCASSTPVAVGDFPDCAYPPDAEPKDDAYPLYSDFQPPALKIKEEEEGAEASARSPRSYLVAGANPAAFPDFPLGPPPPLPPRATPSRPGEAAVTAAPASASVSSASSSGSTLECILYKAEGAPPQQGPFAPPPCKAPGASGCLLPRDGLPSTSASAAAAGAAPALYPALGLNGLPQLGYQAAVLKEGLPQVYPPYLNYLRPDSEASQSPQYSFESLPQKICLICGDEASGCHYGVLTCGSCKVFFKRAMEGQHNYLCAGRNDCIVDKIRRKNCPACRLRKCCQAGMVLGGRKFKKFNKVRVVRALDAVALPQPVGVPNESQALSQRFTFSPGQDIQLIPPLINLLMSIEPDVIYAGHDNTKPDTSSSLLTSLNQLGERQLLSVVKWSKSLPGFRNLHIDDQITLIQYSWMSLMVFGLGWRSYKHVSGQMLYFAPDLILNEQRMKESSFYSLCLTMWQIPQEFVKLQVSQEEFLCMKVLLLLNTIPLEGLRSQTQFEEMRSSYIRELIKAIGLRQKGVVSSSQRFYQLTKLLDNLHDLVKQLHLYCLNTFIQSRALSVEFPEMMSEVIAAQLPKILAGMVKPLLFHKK
Description: Co-transfection assay, PR agonist and antagonist activity, CV-1 cells.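 For all read-outs here: luciferase reporter driven by a hormone response element, co-transfected with human PR-B into CV-1 monkey kidney cells, agonists raise and antagonists lower the reporter signal.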 The test is classed as cell-based. The following applies: for EC50: read-out: PR Agonist CV-1 Cells Potency; for PR Antagonist CV-1 Cells Efficacy (%): antagonist mode, progesterone at its EC50, % maximal inhibition; for IC50: read-out: PR Antagonist CV-1 Cells Potency.

Test [3] has as its target T4, human progesterone receptor A form (PR-A) (Homo sapiens, UniProt P06401).
T4 sequence (P06401 1-769 isoform P06401-2): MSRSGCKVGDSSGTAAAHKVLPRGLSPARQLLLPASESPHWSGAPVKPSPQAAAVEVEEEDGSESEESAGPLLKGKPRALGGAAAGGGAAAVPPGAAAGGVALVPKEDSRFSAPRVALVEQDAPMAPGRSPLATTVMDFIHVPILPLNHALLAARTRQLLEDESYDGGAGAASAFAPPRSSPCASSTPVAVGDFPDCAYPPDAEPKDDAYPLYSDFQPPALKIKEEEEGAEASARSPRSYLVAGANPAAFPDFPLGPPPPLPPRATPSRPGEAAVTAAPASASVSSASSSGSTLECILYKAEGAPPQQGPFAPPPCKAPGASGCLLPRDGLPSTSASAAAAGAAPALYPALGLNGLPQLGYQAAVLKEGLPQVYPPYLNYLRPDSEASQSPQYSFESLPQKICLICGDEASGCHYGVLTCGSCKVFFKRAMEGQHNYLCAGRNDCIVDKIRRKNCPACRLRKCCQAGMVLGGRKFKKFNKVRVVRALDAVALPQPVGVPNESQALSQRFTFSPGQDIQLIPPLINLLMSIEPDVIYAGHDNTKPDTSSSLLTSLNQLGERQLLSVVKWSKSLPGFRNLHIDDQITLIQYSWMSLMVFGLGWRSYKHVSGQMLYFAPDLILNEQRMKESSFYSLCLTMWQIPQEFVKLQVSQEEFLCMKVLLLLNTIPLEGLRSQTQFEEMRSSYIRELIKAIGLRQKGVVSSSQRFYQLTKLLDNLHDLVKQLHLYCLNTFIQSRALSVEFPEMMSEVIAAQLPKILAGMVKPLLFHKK
Description: PR binding assay, baculovirus extract, [3H] progesterone. As to conditions: read-out: PR Binding Ki.

Some results are limits rather than exact numbers.

`CC1=CC(C)(C)Nc2ccc3c(c21)C(c1ccccc1)Oc1ccccc1-3` (racemic) [Compound 161, (R/S)-1,2-Dihydro-2,2,4-trimethyl-5-phenyl-5H-chromeno[3,4-f]quinoline]: in test [1], the “GR Antagonist CV-1 Cells Efficacy (%)” value was 97% and the IC50 turned out to be 0.6 µM. Further, the Ki in test [2] turned out to be 0.137 µM. Moreover, the EC50 at human PR-B (agonist mode) is 0.203 µM. At human PR-B (agonist mode, percent maximal response relative to reference agonist progesterone), the “PR Agonist CV-1 Cells Efficacy (%)” value is 47%. Besides, on human PR-B, the “PR Antagonist CV-1 Cells Efficacy (%)” value was determined as 75% and the IC50 came out at 0.209 µM. Moreover, the Ki in test [3] is 0.003 µM.
For `CC1=CC(C)(C)Nc2ccc3c(c21)C(c1cccc(C(F)(F)F)c1)Oc1ccccc1-3` (racemic) [Compound 195, (R/S) 1,2-Dihydro-2,2,4-trimethyl-5-[3-(trifluoromethyl)phenyl]-5H-chromeno[3,4-f]quinoline], the “GR Antagonist CV-1 Cells Efficacy (%)” value in test [1] worked out at 96%. Moreover, the IC50 in test [1] is 0.59 µM; at human PR-B, over 10 µM. In addition, the Ki in test [2] worked out at 0.026 µM; in test [3], 0.003 µM. Moreover, the EC50 at human PR-B (agonist mode) came to 0.013 µM. Moreover, at human PR-B, the “PR Antagonist CV-1 Cells Efficacy (%)” value was “na (na = not active (i.e. efficacy or <20 and potency of >10,000))”.
